pIC50: −log10 of the molar value.
How the values were obtained:
Thermolysin = molecular target: T1, Thermolysin (Bacillus thermoproteolyticus, UniProt P00800); assay: Inhibitory concentration required to inhibit thermolysin (TLN)
T1 sequence (P00800 whole entry): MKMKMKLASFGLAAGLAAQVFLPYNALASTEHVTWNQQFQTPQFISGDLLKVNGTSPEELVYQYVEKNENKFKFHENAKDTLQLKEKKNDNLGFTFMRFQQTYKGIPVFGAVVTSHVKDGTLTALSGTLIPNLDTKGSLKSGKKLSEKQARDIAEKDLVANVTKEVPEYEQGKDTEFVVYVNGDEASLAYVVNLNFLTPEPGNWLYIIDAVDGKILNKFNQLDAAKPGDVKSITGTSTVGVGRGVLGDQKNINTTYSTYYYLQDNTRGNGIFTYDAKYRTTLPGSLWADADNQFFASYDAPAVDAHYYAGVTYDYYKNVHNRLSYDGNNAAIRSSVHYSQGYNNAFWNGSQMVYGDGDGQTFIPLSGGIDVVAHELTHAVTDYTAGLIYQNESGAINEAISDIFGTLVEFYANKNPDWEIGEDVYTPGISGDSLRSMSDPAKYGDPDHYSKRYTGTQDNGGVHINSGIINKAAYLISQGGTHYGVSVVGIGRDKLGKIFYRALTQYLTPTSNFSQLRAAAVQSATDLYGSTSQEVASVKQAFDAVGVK

Neprilysin = Neprilysin (Homo sapiens, UniProt P08473); assay: Inhibitory concentration required to inhibit neutral endopeptidase (NEP)
Sequence of Neprilysin (P08473 whole entry): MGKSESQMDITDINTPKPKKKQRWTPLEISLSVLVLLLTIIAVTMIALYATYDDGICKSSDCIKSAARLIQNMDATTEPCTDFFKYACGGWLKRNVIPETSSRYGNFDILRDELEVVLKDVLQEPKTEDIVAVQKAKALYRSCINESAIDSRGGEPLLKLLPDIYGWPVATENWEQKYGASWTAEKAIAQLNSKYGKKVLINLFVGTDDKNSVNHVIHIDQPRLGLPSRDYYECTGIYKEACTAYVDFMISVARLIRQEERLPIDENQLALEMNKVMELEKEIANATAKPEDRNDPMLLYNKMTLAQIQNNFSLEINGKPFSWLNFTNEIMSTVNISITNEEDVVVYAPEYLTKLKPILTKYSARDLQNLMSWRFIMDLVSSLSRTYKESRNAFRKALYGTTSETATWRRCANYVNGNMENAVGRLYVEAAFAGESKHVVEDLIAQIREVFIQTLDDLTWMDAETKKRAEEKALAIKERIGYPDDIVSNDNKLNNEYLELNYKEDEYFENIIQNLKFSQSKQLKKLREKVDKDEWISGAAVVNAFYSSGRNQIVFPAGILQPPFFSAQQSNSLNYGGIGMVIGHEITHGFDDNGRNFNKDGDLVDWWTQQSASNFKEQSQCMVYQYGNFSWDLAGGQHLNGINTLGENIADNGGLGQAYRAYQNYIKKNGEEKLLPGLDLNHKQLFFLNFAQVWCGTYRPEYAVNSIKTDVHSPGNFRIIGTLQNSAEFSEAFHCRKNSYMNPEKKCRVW

[1] = molecular target: Angiotensin-converting enzyme (Homo sapiens, UniProt P12821); assay: Inhibitory concentration required to inhibit Angiotensin I converting enzyme (ACE)
Sequence of Angiotensin-converting enzyme (P12821 whole entry): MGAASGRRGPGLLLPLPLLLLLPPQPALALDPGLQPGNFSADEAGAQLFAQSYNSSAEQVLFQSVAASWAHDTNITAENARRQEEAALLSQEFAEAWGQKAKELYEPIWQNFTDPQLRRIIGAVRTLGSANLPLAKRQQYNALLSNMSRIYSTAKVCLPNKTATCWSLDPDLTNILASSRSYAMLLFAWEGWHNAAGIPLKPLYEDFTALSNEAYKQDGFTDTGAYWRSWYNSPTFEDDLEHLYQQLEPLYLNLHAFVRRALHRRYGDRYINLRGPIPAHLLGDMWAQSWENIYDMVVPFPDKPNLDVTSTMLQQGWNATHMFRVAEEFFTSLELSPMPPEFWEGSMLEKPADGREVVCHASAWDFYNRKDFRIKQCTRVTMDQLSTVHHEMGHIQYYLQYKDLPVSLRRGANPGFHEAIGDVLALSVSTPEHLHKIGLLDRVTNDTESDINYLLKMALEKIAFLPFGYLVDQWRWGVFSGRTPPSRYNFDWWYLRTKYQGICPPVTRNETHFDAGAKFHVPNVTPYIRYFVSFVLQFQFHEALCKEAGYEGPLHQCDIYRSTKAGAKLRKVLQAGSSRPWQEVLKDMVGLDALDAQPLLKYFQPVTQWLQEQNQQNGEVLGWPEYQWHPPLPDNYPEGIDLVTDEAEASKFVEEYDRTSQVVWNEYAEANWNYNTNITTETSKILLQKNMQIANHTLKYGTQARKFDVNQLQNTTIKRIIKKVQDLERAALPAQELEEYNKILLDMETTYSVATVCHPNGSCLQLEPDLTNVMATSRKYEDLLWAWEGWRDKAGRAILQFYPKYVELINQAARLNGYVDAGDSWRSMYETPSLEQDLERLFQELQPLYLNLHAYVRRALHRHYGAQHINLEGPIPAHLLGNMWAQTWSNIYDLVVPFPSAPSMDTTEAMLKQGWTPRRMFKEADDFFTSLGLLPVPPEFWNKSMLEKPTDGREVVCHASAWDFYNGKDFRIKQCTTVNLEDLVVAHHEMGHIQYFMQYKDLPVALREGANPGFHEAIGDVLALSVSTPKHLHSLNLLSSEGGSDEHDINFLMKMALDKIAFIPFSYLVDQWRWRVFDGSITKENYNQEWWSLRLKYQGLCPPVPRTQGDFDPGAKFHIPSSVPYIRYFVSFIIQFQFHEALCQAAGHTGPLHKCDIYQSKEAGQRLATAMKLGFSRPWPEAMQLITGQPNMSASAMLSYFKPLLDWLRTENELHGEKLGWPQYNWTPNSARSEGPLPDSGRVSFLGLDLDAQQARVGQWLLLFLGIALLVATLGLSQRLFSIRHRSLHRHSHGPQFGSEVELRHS

Structure (SMILES)	pIC50 (Thermolysin)	pIC50 (Neprilysin)	pIC50 [1]
O=C1N[C@H](C(=O)O)CCCCCCc2ccccc2C[C@H]1CS	4.39	6.65	< 5.00
O=C1N[C@H](C(=O)O)CCCCCc2cccc(c2)C[C@@H]1CS	4.32	8.10	8.40
O=C1N[C@H](C(=O)O)CCCCCCc2cccc(c2)C[C@H]1CS	< 5.00	6.35	6.93
O=C1N[C@H](C(=O)O)Cc2ccccc2CCCCCC[C@@H]1CS			6.14
O=C1N[C@@H](C(=O)O)Cc2ccccc2CCCCC[C@@H]1CS			5.22
C[C@H](CS)C(=O)N1Cc2[nH]c3ccccc3c2CC1C(=O)O (some centres not stated)			6.30
O=C1N[C@H](C(=O)O)CCCCCc2cccc(c2)C[C@H]1CS	< 5.00	6.00	5.85
O=C1N[C@@H](C(=O)O)Cc2ccccc2CCCCCC[C@@H]1CS			6.33
O=C1N[C@H](C(=O)O)CCCCCCc2ccccc2C[C@@H]1CS	5.74	7.57	< 5.00
O=C1N[C@H](C(=O)O)CCCCc2ccccc2C[C@@H]1CS			< 5.00
O=C1N[C@H](C(=O)O)CCCCCc2ccccc2C[C@@H]1CS			5.10
O=C1N[C@H](C(=O)O)CCCCc2ccccc2C[C@H]1CS			< 5.00
O=C1N[C@H](C(=O)O)CCCCCc2ccccc2C[C@H]1CS			5.70
O=C1N[C@H](C(=O)O)CCCCCCc2cccc(c2)C[C@@H]1CS	4.47	8.40	6.76
O=C1N[C@@H](C(=O)O)Cc2ccccc2CCCCCCC[C@@H]1CS			< 5.00

From ChEMBL document CHEMBL1129939, “Meta-substituted benzofused macrocyclic lactams as zinc metalloprotease inhibitors” (J Med Chem, 1997)
